Reference: patent publication EP3696177A1, “HETEROCYCLIC COMPOUNDS FOR THE CONTROL OF INVERTEBRATE PESTS” (BASF SE, priority 2019, dated 2020)

Key:
Format in all cases: in vivo
Myzus persicae = assay: Green peach aphid (Myzus persicae) artificial diet/membrane systemic test; conditions: 72 h, read-out: mortality in comparison with untreated controls
From the text: For evaluating control of green peach aphid (Myzus persicae) through systemic means the test unit consisted of 96-well-microtiter plates containing liquid artificial diet under an artificial membrane.
The compounds were formulated using a solution containing 75% v/v water and 25% v/v DMSO. Different concentrations of formulated compounds were pipetted into the aphid diet, using a cus-tom built pipetter, at two replications.
After application, 5 - 8 adult aphids were placed on the artificial membrane inside the microtiter plate wells. The aphids were then allowed to suck on the treated aphid diet and incubated at about 23 + 1°C and about 50 + 5 % relative humidity for 3 days. Aphid mortality and fecundity was then visually assessed.

Heliothis virescens = assay: Tobacco budworm (Heliothis virescens) insect diet microtiter plate test; conditions: 120 h, read-out: mortality in comparison with untreated controls (egg and larval mortality)
Description: For evaluating control of tobacco budworm (Heliothis virescens) the test unit consisted of 96-well-microtiter plates containing an insect diet and 15-25 H. virescens eggs.
The compounds were formulated using a solution containing 75% v/v water and 25% v/v DMSO. Different concentrations of formulated compounds were sprayed onto the insect diet at 10 µl, us-ing a custom built micro atomizer, at two replications.
After application, microtiter plates were incubated at about 28 + 1°C and about 80 + 5 % relative humidity for 5 days. Egg and larval mortality was then visually assessed.

Anthonomus grandis = assay: Boll weevil (Anthonomus grandis) insect diet microtiter plate test; conditions: 120 h, read-out: mortality in comparison with untreated controls (egg and larval mortality)
Description: For evaluating control of boll weevil (Anthonomus grandis) the test unit consisted of 96-well-microtiter plates containing an insect diet and 5-10 A. grandis eggs.
The compounds were formulated using a solution containing 75% v/v water and 25% v/v DMSO. Different concentrations of formulated compounds were sprayed onto the insect diet at 5 µl, using a custom built micro atomizer, at two replications.
After application, microtiter plates were incubated at about 25 + 1°C and about 75 + 5 % relative humidity for 5 days. Egg and larval mortality was then visually assessed.

dichromothrips corbetti = assay: Orchid thrips floral-immersion test; conditions: 72 h, read-out: mortality in comparison with untreated controls
Description: Dichromothrips corbetti adults used for bioassay are obtained from a colony maintained continu-ously under laboratory conditions. For testing purposes, the test compound is diluted in a 1:1 mix-ture of acetone:water (vol:vol), plus Kinetic at a rate of 0.01% v/v.
Thrips potency of each compound is evaluated by using a floral-immersion technique. Each orchid petal is dipped into treatment solution and allowed to dry in Petri dishes. Treated petals are placed into individual re-sealable plastic along with about 20 adult thrips. All test arenas are held under dark condition and a temperature of about 28°C for duration of the assay. The percent mor-tality is recorded 72 hours after treatment.

Aedes aegypti = assay: whole plant or invertebrate; conditions: 48 h, A. aegypti larvae, incubated 2 days, read-out: mortality in comparison with untreated controls (larval mortality)
Description: For evaluating control of yellow fever mosquito (Aedes aegypti) the test unit consisted of 96-well-microtiter plates containing 200µl of tap water per well and 5-15 freshly hatched A. aegypti larvae.
The active compounds were formulated using a solution containing 75% (v/v) water and 25% (v/v) DMSO. Different concentrations of formulated compounds or mixtures were sprayed onto the insect diet at 2.5µl, using a custom built micro atomizer, at two replications.
After application, microtiter plates were incubated at 28 + 1°C, 80 + 5 % RH for 2 days. Larval mortality was then visually assessed.

Megoura viciae = assay: Vetch aphid (Megoura viciae) broad bean leaf disk test; conditions: foliar, 120 h, read-out: mortality in comparison with untreated controls
Description: For evaluating control of vetch aphid (Megoura viciae) through contact or systemic means the test unit consisted of 24-well-microtiter plates containing broad bean leaf disks.
The compounds were formulated using a solution containing 75% v/v water and 25% v/v DMSO. Different concentrations of formulated compounds were sprayed onto the leaf disks at 2.5 µl, us-ing a custom built micro atomizer, at two replications.
After application, the leaf disks were air-dried and 5 - 8 adult aphids placed on the leaf disks in-side the microtiter plate wells. The aphids were then allowed to suck on the treated leaf disks and incubated at about 23 + 1°C and about 50 + 5 % relative humidity for 5 days. Aphid mortality and fecundity was then visually assessed.

Plutella xylostella = assay: Diamond back moth (Plutella xylostella) cabbage leaf disc dip test; conditions: foliar, 72 h, read-out: mortality in comparison with untreated controls
Description: The active compound is dissolved at the desired concentration in a mixture of 1:1 (vol:vol) distilled water: acetone. Surfactant (Kinetic) is added at a rate of 0.01% (vol/vol). The test solution is pre-pared at the day of use.
Cabbage leaf discs (60mm in diameter) are dipped in test solution and air-dried. Treated leaves are placed in petri dishes lined with moistened filter paper and inoculated with ten 3rd instar larvae. Mortality is recorded 72 hours after treatment. Feeding damage is also recorded using a scale of 0-100%.

Caenorhabditis elegans = Caenorhabditis elegans liquid diet microtiter plate test; conditions: 96 h, read-out: mortality in comparison with untreated controls (nematode motility (mortality))
Description: For evaluating control of Caenorhabditis elegans through contact or systemic means the test unit consisted of 96-well-microtiter plates containing a liquid diet.
The compounds or mixtures were formulated using a solution containing 75% water and 25% DMSO. Different concentrations of formulated compounds were sprayed into the microtiter plate wells at 5µl per well, using a custom built micro atomizer, at two replications. Mixed instar 60-100 C. elegans were transferred into the micro-titer plate wells. After application, the nematodes were incubated at 18 + 1°C, 70 + 5 % RH for 4 days. Nematode motility (mortality) was then visually assessed.

Tetranychus kanzawai = assay: Red spider mite (Tetranychus kanzawai) spray test on cowpea beans; conditions: topical, 72 h, read-out: mortality in comparison with untreated controls
Description: The active compound is dissolved at the desired concentration in a mixture of 1:1 (vol:vol) distilled water: acetone. Add surfactant (Kinetic) is added at a rate of 0.01% (vol/vol). The test solution is prepared at the day of use.
Potted cowpea beans of 4-5 days of age are cleaned with tap water and sprayed with 1-2 ml of the test solution using air driven DeVilbiss® hand atomizer at 20- 30 psi (≈ 1,38 to 2,07 bar). The treated plants are allowed to air dry and afterwards inoculated with 30 or more mites by clipping a cassava leaf section from rearing population. Treated plants are placed inside a holding room at about 25-26°C and about 65-70% relative humidity. Estimate percent mortality is assessed 72 hours after treatment.

O=C(NCC1OCN(CC2CC2)C1=O)c1ccc(C2=NOC(c3cc(Cl)cc(C(F)(F)F)c3)(C(F)(F)F)C2)c2c1CCC2 (stereo not shown) [Compound I-3-4]
> 75%: mortality at 2500 ppm (Myzus persicae) | mortality at 2500 ppm (Heliothis virescens) | mortality at 2500 ppm (Anthonomus grandis) | mortality at 300 ppm (dichromothrips corbetti) | mortality at 2500 ppm (Aedes aegypti) | mortality at 2500 ppm (Megoura viciae) | mortality at 300 ppm (Plutella xylostella)

O=C(NCC1OCN(CC2CC2)C1=O)c1ccc(C2=NOC(c3cc(Cl)c(F)c(Cl)c3)(C(F)(F)F)C2)cc1Cl (stereo not shown) [Compound I-3-6]
> 75%: mortality at 2500 ppm (Myzus persicae) | mortality at 2500 ppm (Heliothis virescens) | mortality at 2500 ppm (Anthonomus grandis) | mortality at 300 ppm (dichromothrips corbetti) | mortality at 2500 ppm (Aedes aegypti) | mortality at 2500 ppm (Megoura viciae) | mortality at 300 ppm (Plutella xylostella)

CCN1COC(CNC(=O)c2ccc(C3=NOC(c4cc(Cl)cc(Cl)c4)(C(F)(F)F)C3)cc2Cl)C1=O (stereo not shown) [Compound I-3-8]
> 75%: mortality at 2500 ppm (Myzus persicae) | mortality at 2500 ppm (Heliothis virescens) | mortality at 2500 ppm (Anthonomus grandis) | mortality at 2500 ppm (Caenorhabditis elegans) | mortality at 300 ppm (dichromothrips corbetti) | mortality at 2500 ppm (Aedes aegypti) | mortality at 2500 ppm (Megoura viciae) | mortality at 300 ppm (Plutella xylostella)

O=C(NCC1OCN(CC(F)(F)F)C1=O)c1ccc(C2=NOC(c3cc(Cl)cc(Cl)c3)(C(F)(F)F)C2)cc1Cl (stereo not shown) [Compound I-3-9]
> 75%: mortality at 2500 ppm (Myzus persicae) | mortality at 2500 ppm (Heliothis virescens) | mortality at 2500 ppm (Anthonomus grandis) | mortality at 2500 ppm (Caenorhabditis elegans) | mortality at 300 ppm (dichromothrips corbetti) | mortality at 2500 ppm (Aedes aegypti) | mortality at 2500 ppm (Megoura viciae) | mortality at 300 ppm (Plutella xylostella)

O=C(NCC1OCN(CC2CC2)C1=O)c1ccc(C2=NOC(c3cc(Cl)cc(Cl)c3)(C(F)(F)F)C2)cc1Cl (stereo not shown) [Compound I-3-10]
> 75%: mortality at 2500 ppm (Myzus persicae) | mortality at 2500 ppm (Heliothis virescens) | mortality at 2500 ppm (Anthonomus grandis) | mortality at 2500 ppm (Caenorhabditis elegans) | mortality at 300 ppm (dichromothrips corbetti) | mortality at 2500 ppm (Aedes aegypti) | mortality at 300 ppm (Plutella xylostella)

Cc1cc(C2=NOC(c3cc(Cl)cc(Cl)c3)(C(F)(F)F)C2)ccc1C(=O)NCC1OCN(CC(F)(F)F)C1=O (stereo not shown) [Compound I-3-13]
> 75%: mortality at 2500 ppm (Myzus persicae) | mortality at 2500 ppm (Heliothis virescens) | mortality at 2500 ppm (Anthonomus grandis) | mortality at 2500 ppm (Caenorhabditis elegans) | mortality at 300 ppm (Tetranychus kanzawai) | mortality at 300 ppm (dichromothrips corbetti) | mortality at 2500 ppm (Aedes aegypti) | mortality at 2500 ppm (Megoura viciae) | mortality at 300 ppm (Plutella xylostella)

Cc1cc(C2=NOC(c3cc(Cl)cc(Cl)c3)(C(F)(F)F)C2)ccc1C(=O)NCC1OCN(CC2CC2)C1=O (stereo not shown) [Compound I-3-14]
> 75%: mortality at 2500 ppm (Myzus persicae) | mortality at 2500 ppm (Heliothis virescens) | mortality at 2500 ppm (Anthonomus grandis) | mortality at 2500 ppm (Caenorhabditis elegans) | mortality at 300 ppm (Tetranychus kanzawai) | mortality at 300 ppm (dichromothrips corbetti) | mortality at 2500 ppm (Aedes aegypti) | mortality at 2500 ppm (Megoura viciae) | mortality at 300 ppm (Plutella xylostella)

CN1C(=O)OC(CNC(=O)c2ccc(C3=NOC(c4cc(Cl)cc(Cl)c4)(C(F)(F)F)C3)cc2Cl)C1=O (stereo not shown) [Compound I-4-1, 2-chloro-4-[5-(3,5-dichlorophenyl)-5-(trifluoromethyl)-4H-isoxazol-3-yl]-N-[(3-methyl-2,4-dioxo-oxazolidin-5-yl)methyl]benzamide]
> 75%: mortality at 2500 ppm (Myzus persicae) | mortality at 2500 ppm (Heliothis virescens) | mortality at 2500 ppm (Anthonomus grandis) | mortality at 2500 ppm (Caenorhabditis elegans) | mortality at 300 ppm (dichromothrips corbetti) | mortality at 2500 ppm (Megoura viciae) | mortality at 300 ppm (Plutella xylostella)

O=C(NCC1OC(=O)N(CC(F)(F)F)C1=O)c1ccc(C2=NOC(c3cc(Cl)cc(Cl)c3)(C(F)(F)F)C2)cc1Cl (stereo not shown) [Compound I-4-2]
> 75%: mortality at 2500 ppm (Myzus persicae) | mortality at 2500 ppm (Heliothis virescens) | mortality at 2500 ppm (Anthonomus grandis) | mortality at 2500 ppm (Caenorhabditis elegans) | mortality at 300 ppm (dichromothrips corbetti) | mortality at 2500 ppm (Aedes aegypti) | mortality at 2500 ppm (Megoura viciae) | mortality at 300 ppm (Plutella xylostella)

O=C(NCC1OC(=O)N(CC2CC2)C1=O)c1ccc(C2=NOC(c3cc(Cl)cc(Cl)c3)(C(F)(F)F)C2)cc1Cl (stereo not shown) [Compound I-4-3]
> 75%: mortality at 2500 ppm (Myzus persicae) | mortality at 2500 ppm (Heliothis virescens) | mortality at 2500 ppm (Anthonomus grandis) | mortality at 2500 ppm (Caenorhabditis elegans) | mortality at 300 ppm (dichromothrips corbetti) | mortality at 2500 ppm (Aedes aegypti) | mortality at 2500 ppm (Megoura viciae) | mortality at 300 ppm (Plutella xylostella)

Cc1cc(C2=NOC(c3cc(Cl)cc(Cl)c3)(C(F)(F)F)C2)ccc1C(=O)NCC1OC(=O)N(CC(F)(F)F)C1=O (stereo not shown) [Compound I-4-5]
> 75%: mortality at 2500 ppm (Myzus persicae) | mortality at 2500 ppm (Heliothis virescens) | mortality at 2500 ppm (Anthonomus grandis) | mortality at 2500 ppm (Caenorhabditis elegans) | mortality at 300 ppm (dichromothrips corbetti) | mortality at 2500 ppm (Aedes aegypti) | mortality at 2500 ppm (Megoura viciae) | mortality at 300 ppm (Plutella xylostella)

Cc1cc(C2=NOC(c3cc(Cl)cc(Cl)c3)(C(F)(F)F)C2)ccc1C(=O)NCC1OC(=O)N(CC2CC2)C1=O (stereo not shown) [Compound I-4-6]
> 75%: mortality at 2500 ppm (Myzus persicae) | mortality at 2500 ppm (Heliothis virescens) | mortality at 2500 ppm (Anthonomus grandis) | mortality at 2500 ppm (Caenorhabditis elegans) | mortality at 300 ppm (dichromothrips corbetti) | mortality at 2500 ppm (Aedes aegypti) | mortality at 2500 ppm (Megoura viciae) | mortality at 300 ppm (Plutella xylostella)
